US20120157466A1, “HETEROCYCLIC COMPOUNDS WITH CXCR3 ANTAGONIST ACTIVITY” (priority 2007, published 2012)
pIC50: −log10 of the molar value. Like-named read-outs stand apart in the source and are kept apart here.

Target: T1, human CXCR3 (N-delta 4) (Homo sapiens, UniProt P49682)
T1 construct: CD8 leader (N); Flag tag; expressed in transfected cells; membrane preparation
T1 sequence (P49682 5-368 limits assumed): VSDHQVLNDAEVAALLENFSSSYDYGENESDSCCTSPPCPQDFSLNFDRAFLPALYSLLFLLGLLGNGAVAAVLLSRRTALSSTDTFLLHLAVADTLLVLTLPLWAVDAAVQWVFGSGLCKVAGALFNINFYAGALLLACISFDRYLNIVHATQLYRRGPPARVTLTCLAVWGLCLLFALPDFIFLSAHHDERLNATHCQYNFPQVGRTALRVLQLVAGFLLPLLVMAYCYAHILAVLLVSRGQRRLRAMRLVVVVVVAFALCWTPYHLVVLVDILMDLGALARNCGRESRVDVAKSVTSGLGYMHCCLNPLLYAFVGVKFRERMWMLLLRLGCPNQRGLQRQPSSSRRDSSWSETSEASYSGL
Assay: Human CXCR3 (N-delta 4) Scintillation Proximity Assay (SPA), [125I] IP-10 binding
Text: The inventive compounds can readily be evaluated to determine activity at The CXCR3 receptors by known methods, such as, for example, Development of Human CXCR3 (N-delta 4) Binding Assay.
Cloning and Expression of Human CXCR3 (N-delta 4):
The DNA encoding human CXCR3 was cloned by PCR using human genomic DNA (Promega, Madison, Wis.) as a template. The PCR primers were designed based on the published sequence of human orphan receptor GPR9 (1) with incorporated restriction sites, a Kozak consensus sequence, CD8 leader and Flag tag. The PCR product was subcloned into the mammalian expression vector pME18Sneo, a derivative of the SR-alpha expression vector (designated as pME18Sneo-hCXCR3 (N-delta 4).
IL-3-dependent mouse pro-B cells Ba/F3 were transfected by electroporation in 0.4 ml Dulbecco's PBS containing 4×10^6 cells with 20 μg of pME18Sneo-hCXCR3 (N-delta 4) plasmid DNA. Cells were pulsed at 400 Volts, 100 OHMs, 960 μFd. The transfected cells were under selection with 1 mg/ml G418 (Life Technologies, Gaithersburg, Md.). G418-resistant Ba/F3 clones were screened for CXCR3 expression by specific binding of [^125I] IP-10 (NEN Life Science Products, Boston, Mass.).
Preparation of Ba/F3-hCXCR3 (N-delta 4) Membranes
Ba/F3 cells expressing human CXCR3 (N-delta 4) were pelleted and resuspended in the lysis buffer containing 10 mM HEPES, pH 7.5 and Complete protease inhibitors (1 tablet per 100 ml) (Boehringer Mannheim, Indianapolis, Ind.) at a cell density of 20×10^6 cells per ml. After 5 minutes incubation on ice, cells were transferred to 4639 cell disruption bomb (Parr Instrument, Moline, Ill.) and applied with 1,500 psi of nitrogen for 30 minutes on ice. Large cellular debris was removed by centrifugation at 1,000×g. Cell membrane in the supernatant was sedimented at 100,000×g. The membrane was resuspended in the lysis buffer supplemented with 10% sucrose and stored at −80° C. Total protein concentration of the membrane was determined by BCA method from Pierce (Rockford, Ill.).
Human CXCR3 (N-delta 4) Scintillation Proximity Assay (SPA)
For each assay point, 2 μg of membrane was preincubated for 1 hr with 300 μg wheat germ agglutinin (WGA) coated SPA beads (Amersham, Arlington Heights, Ill.) in the binding buffer (50 mM HEPES, 1 mM CaCl2, 5 mM MgCl2, 125 mM NaCl, 0.002% NaN3, 1.0% BSA) at room temperature. The beads were spun down, washed once, resuspended in the binding buffer and transferred to a 96-well Isoplate (Wallac, Gaithersburg, Md.). 25 pM of [^125I] IP-10 with tested compounds in a series of titration were added to start the reaction. After 3 hr reaction at room temperature, the amount of [^125I] IP-10 bound to the SPA beads was determined with a Wallac 1450 Microbeta counter.

[1] = human CXCR3, Ba/F3-hCXCR3 (N-delta 4) membranes, 25 pM [125I] IP-10, read-out: IC50 rating (human)
[2] = numerical IC50 values of representative compounds, read-out: IC50

Row | pIC50 [1] | pIC50 [2] | Compound
1 | < 7.00 | – | O=C(NCc1ccc(F)c(F)c1)c1cnc(N2CCN(C3CCN(Cc4ccc(Cl)cc4)CC3)CC2)nc1C(F)(F)F [Compound 2]
2 | < 7.00 | – | O=C(NCc1ccc(F)c(F)c1)c1cnc(N2CCN(C3CCN(C(=O)c4ccc(Cl)cc4)CC3)CC2)nc1C(F)(F)F [Compound 3]
3 | < 7.00 | – | C[C@H]1CN(c2nccc(C(F)(F)F)n2)CCN1C1CCN(Cc2ccc(Cl)cc2)CC1 [Compound 5]
4 | < 7.00 | – | CC[C@H]1CN(c2nc(Cl)c3nc[nH]c3n2)CCN1C1CCN(Cc2ccc(Cl)cc2F)CC1 [Compound 7]
5 | < 7.00 | – | CCNC(=O)c1cc(C)nc(N2CCN(C3CCN(Cc4ccc(Cl)cc4)CC3)[C@@H](CC)C2)n1 [Compound 8]
6 | 7.00 to 7.60 | – | CC[C@H]1CN(c2nc3ncccc3c(=O)n2C)CCN1C1CCN(C(=O)c2ccc(Cl)cc2)CC1 [Compound 9]
7 | < 7.00 | – | CC[C@H]1CN(c2nc3ccccc3n2C)CCN1C1CCN(Cc2ccc(Cl)cc2F)CC1 [Compound 10]
8 | 7.00 to 7.60 | – | CC[C@H]1CN(c2nc3ncccc3c(=O)n2C2CC2)CCN1C1CCN(C(=O)c2ccc(Cl)cc2)CC1 [Compound 11]
9 | > 7.60 | 8.72 | CC[C@H]1CN(c2nc3ncccc3c(=O)n2C2CC2)CCN1C1CCN(Cc2ccc(Cl)cc2)CC1 [Compound 12]
10 | > 7.60 | 8.55 | CC[C@H]1CN(c2nc3ncccc3c(=O)n2C2CC2)CCN1C1CCN(Cc2ccc(OC(F)(F)F)cc2)CC1 [Compound 13]
11 | > 7.60 | 8.25 | CC[C@H]1CN(c2nc3ncccc3c(=O)n2C2CC2)CCN1C1CCN(Cc2ccc(C(F)(F)F)cc2)CC1 [Compound 14]
12 | > 7.60 | 8.74 | CC[C@H]1CN(c2nc3ncccc3c(=O)n2C2CC2)CCN1C1CCN(Cc2ccc(Cl)c(F)c2)CC1 [Compound 15]
13 | > 7.60 | – | CC[C@H]1CN(c2nc3ncccc3c(=O)n2C2CC2)CCN1C1CCN(Cc2ccc(F)c(F)c2)CC1 [Compound 16]
14 | > 7.60 | 8.60 | CC[C@H]1CN(c2nc3ncccc3c(=O)n2C2CC2)CCN1C1CCN(Cc2ccc(Cl)cc2F)CC1 [Compound 17]
15 | > 7.60 | – | CC[C@H]1CN(c2nc3ncccc3c(=O)n2C2CC2)CCN1C1CCN(Cc2ccc(C#N)cc2)CC1 [Compound 18]
16 | < 7.00 | – | CC[C@H]1CN(c2nc3ncccc3c(=O)n2C)CCN1C1CCN(C(=O)c2ccc(Cl)nc2N)CC1 [Compound 19]
17 | 7.00 to 7.60 | – | CC[C@H]1CN(c2nc3ncccc3c(=O)n2C2CC2)CCN1C1CCN(C(=O)c2ccc(Cl)nc2N)CC1 [Compound 20]
18 | > 7.60 | – | CC[C@H]1CN(c2nc3ncccc3c(=O)n2C)CCN1C1CCN(Cc2ccc(Cl)cc2)CC1 [Compound 21]
19 | > 7.60 | – | CC[C@H]1CN(c2nc3ncccc3c(=O)n2C)CCN1C1CCN(Cc2ccc(OC(F)(F)F)cc2)CC1 [Compound 22]
20 | < 7.00 | – | CC[C@H]1CN(c2nc3ncccc3c(=O)n2C)[C@H](C)CN1C1CCN(C(=O)c2ccc(Cl)cc2)CC1 [Compound 23]
